From publication PMC12071598, “Piperazine-Substituted Pyranopyridines Exhibit Antiproliferative Activity and Act as Inhibitors of HBV Virion Production” (International Journal of Molecular Sciences, 2025)
Values after ≈ are worked out from the molar mass of the structure shown. Read-outs that look alike come from different tables or passages of the source.

How the values were obtained:
K562 [1] = test system: K562; set-up: method as in PMID 22677031; conditions: leukemic cell lines (including K562) ref 57; cited from earlier work
HeLa = experiment: Antiproliferative activity, MTT assay, HeLa; format: cell-based; conditions: Homo sapiens, HeLa cervix carcinoma, 72 h
SARS-CoV-2 = experiment: microbe, parasite or virus in culture; format: cell-based; conditions: for IC50: Severe acute respiratory syndrome coronavirus 2, Vero C1008, read-out: SARS-CoV-2 IC50, µM
K562 [2] = experiment: Antiproliferative activity, MTT assay, K562; format: cell-based; conditions: Homo sapiens, K562 chronic myeloid leukemia, 72 h
hepatitis B virus (HBV) = experiment: microbe, parasite or virus in culture; format: cell-based; conditions: Hepatitis B virus, 144 h
SH-SY5Y = experiment: Antiproliferative activity, crystal violet staining, SH-SY5Y; format: cell-based; conditions: Homo sapiens, SH-SY5Y neuroblastoma, 72 h
[3] = Cytotoxicity by MTS assay in MDCK cells; format: cell-based; conditions: dog, read-out: Influenza A Virus CC50
Description: Production of influenza A virus (H1N1) stock and its infection of MDCK cells, as well as infection of Vero E6 cells with SARS-CoV-2, were described previously. Cytotoxicity of the compounds towards MDCK and VeroE6 cells was assessed by seeding 18,000 cells/well of […] plates in 0.1 mL DMEM, treating with the compounds for 66 h, and measuring cell viability by MTS assay. As positive controls, oseltamivir and N-hydroxicytidine were used (obtained from Sigma).
The compounds were added at non-toxic concentrations in serum-free DMEM to the respective cells; one hour later, the serial 10-fold dilutions of influenza virus or SARS-CoV-2 were added in serum-free medium, and antiviral activity was determined by the reduction in the infectious titer of the virus by cytopathic action (CPE). Calculation of 50% cytotoxic concentration (CC50) and 50% effective concentration (IC50) was performed by standard methods using Microsoft Excel 5.0 and GraphPad Prism 8 (GraphPad Software Inc., Boston, MA, USA).

PV1 = experiment: microbe, parasite or virus in culture; format: cell-based, poliovirus type 1; conditions: Enterovirus C, 48 h, read-out: PV1 IC50, µM
HSV-1 = experiment: microbe, parasite or virus in culture; format: cell-based, herpes simplex virus type 1; conditions: Human alphaherpesvirus 1, 48 h, read-out: HSV-1 IC50, µM
DU145 = experiment: Antiproliferative activity, MTT assay, DU145; format: cell-based; conditions: Homo sapiens, DU-145, DU145 prostate carcinoma, 72 h
A549 [4] = experiment: Antiproliferative activity, MTT assay, A549; format: cell-based; conditions: Homo sapiens, A549 lung carcinoma, 72 h
HepaRG = experiment: Cytotoxicity towards non-tumor differentiated HepaRG cells, MTT; format: cell-based, human; conditions: concentration decreasing number of viable cells by 50%; for IC50: Homo sapiens
Nrf2/ARE pathway = experiment: Status of Nrf2/ARE pathway, real-time RT-PCR in A549 cells; format: cell-based; conditions: A549, 10 µM, three days
Description: Increased ROS production is often counteracted by the induction of antioxidant enzymes, many of which are controlled by the Nrf2 transcription factor [49]. So, we analyzed if the compounds could have activated this antioxidant defense system.
A possible effect of the least-toxic 3 compounds (DO11-37, DO11-45, and DO11-47) on the status of Nrf2/ARE pathway was analyzed by quantification of expression of Nrf2 and Nrf2-dependend genes using real-time PCR analysis. A549 cells were seeded in 6-well plates at a density of 3.09 × 10^5 cells/well in DMEM-F12 media supplemented with FBS and glutamine and treated with 10 µM compounds for three days. Next, total RNA was isolated using CleanRNA standard kit (Evrogen) with subsequent treatment with DNAseI (Roche, Basel, Switzerland), and 2 µg of RNA from each sample was reverse-transcribed using random hexamer primer and mint reverse transcriptase according to manufacturer’s protocol and subjected to real-time PCR as described previously using primers listed in the Table 5.

VV = experiment: microbe, parasite or virus in culture; format: cell-based; conditions: Orthopoxvirus vaccinia, 48 h, read-out: VV IC50, µM
NDV = experiment: microbe, parasite or virus in culture; format: cell-based, Newcastle disease virus; conditions: avian paramyxovirus 1, 48 h, read-out: NDV IC50, µM
Influenza A virus = experiment: microbe, parasite or virus in culture; format: cell-based, influenza A virus (H1N1)
H1299 cells [5] = experiment: Cell death in H1299 cells, NucView 488 caspase 3/7 and 7-AAD staining; format: cell-based; conditions: H1299, 72 h; 2.5 and 5 µM DO11-46 or 5 and 10 µM DO11-48
Description: To investigate the mechanism of the cytotoxic action of piperazine-substituted pyranopyridines, we evaluated two compounds, namely, DO11-46 and DO11-48, that acted in submicromolar concentrations. The first step was to which type of cell death they induce. This was carried out by staining H1299 cells with 7AAD dye that stains non-viable cells (with damaged membrane) and NucView-488 dye for caspase 3/7 activity as they are activated during apoptosis. Imaging and analysis protocols for H1299 were established earlier, and cells were imaged using automated microscopy and then analyzed using Cellpose and CellProfiler.
To analyze cell death mechanisms, we stained cells NucView 488 (Biotium, Fremont, CA, USA) probe for caspase 3 and 7 activity, 1 ug/mL of non-permeable DNA dye 7-AAD (BioinnLabs, Russia), and stain for labile Fe2+ HMRhoNox-M (Lumiprobe, Russia). Cells were treated with drugs for 72 h and then stained for 30 min with 2 uM NucView 488 and 2 uM HMRhoNox-M at 37 °C. Then, cells were washed once in DMEM with low autofluorescence, then 1 ug/mL 7-AAD was added, and cells were imaged using Leica DMI8 automated microscope. […] HMRhoNox-M signal was analyzed as mean fluorescence intensity per cell. Experiments were repeated two independent times, and 4 random images were recorded each time.

H1299 cells [6] = experiment: Lysosome accumulation, LysoGreen in H1299 cells; format: cell-based; conditions: H1299, 72 h
Description: (§1) H1299 cells were seeded at 750 cells/well density in 96-well plate, treated with drugs for 72 h and then stained with 1 ug/mL Hoechst-33342 (Lumiprobe, Moscow, Russia), 100 nM TMRE (Lumiprobe, Russia) potential-dependent mitochondria stain, 100 nM LumiTracker LysoGreen (Lumiprobe, Russia) stain for acidic lysosomes, and 0.33 ug/mL Tubulin Tracker Deep Red (Invitrogen, USA). Cells were stained at 37 °C for 30 min with all stains, except for LysoGreen, which was added 5 min before imaging. Cells were washed once and imaged in DMEM with low autofluorescence (BioinnLabs, Rostov na Donu, Russia) with Leica DMI8 automated microscope (Wetzlar, Germany). Fluorescent imaging was performed using 10× objective with the following parameters: for Hoechst-33342 excitation 325–375 nm and emission 435–485 nm, LysoGreen 460–500/512–542 nm, TMRE 541–551/565–605 nm, and Tubulin Tracker 590–650/662–738 nm. For nuclei segmentation, we applied cyto3 model from Cellpose v3 [42] to Hoechst-33342 images, and cell cytoplasm was segmented using merged TMRE and Tubulin Tracker images with Sauvola propagation method in CellProfiler v4.2 [43]. Integrated intensity of TMRE and LysoGreen fluorescence for each cell were calculated using CellProfiler. […] Experiments were repeated two independent times, and 4 random images were recorded each time.

H1299 cells [7] = experiment: Labile Fe2+ levels, HMRhoNox-M in H1299 cells; format: cell-based; conditions: H1299, 72 h
Description: To analyze cell death mechanisms, we stained cells NucView 488 (Biotium, Fremont, CA, USA) probe for caspase 3 and 7 activity, 1 ug/mL of non-permeable DNA dye 7-AAD (BioinnLabs, Russia), and stain for labile Fe2+ HMRhoNox-M (Lumiprobe, Russia). Cells were treated with drugs for 72 h and then stained for 30 min with 2 uM NucView 488 and 2 uM HMRhoNox-M at 37 °C. Then, cells were washed once in DMEM with low autofluorescence, then 1 ug/mL 7-AAD was added, and cells were imaged using Leica DMI8 automated microscope. Fluorescent imaging was performed using 10x objective with the following parameters: for Hoechst-33342 excitation 325–375 nm and emission 435–485 nm, NucView 488 460–500/512–542 nm, HMRho-Nox-M 541–551/565–605 nm, and 7-AAD 590–650/662–738 nm. Cells were segmented using images in bright field with cyto3 model from Cellpose and then processed in CellProfiler. 7-AAD and NucView 488 images were used to segment nuclei of necrotic or apoptotic cells in CellProfiler. If a cell contained nucleus stained with NucView 488, it was considered as apoptotic, and if it contained a nucleus stained only with 7-AAD, it was considered as necrotic. HMRhoNox-M signal was analyzed as mean fluorescence intensity per cell. Experiments were repeated two independent times, and 4 random images were recorded each time.

A549 cells = experiment: Intracellular ROS assay, DCFH2-DA in A549 cells; format: cell-based; conditions: A549, 10 µM, 72 h
Description: As cell death is often triggered by increased production of reactive oxygen species (ROS), the next step was to evaluate if our compounds act as pro-oxidants. ROS production was accessed using cell-permeable redox sensitive DCFH2-DA dye. […] As one of the main sites of ROS production is mitochondria, we also evaluated their membrane potential during treatment with either DO11-46 or DO11-48. […] Lysosome activation often accompany late stages of apoptosis, which is in good accordance with our data on the induction of caspase3/7 activity.
Pro-oxidant activity of the compounds was studied by quantification of ROS production using a cell-permeable fluorogenic probe 2′,7′-dichlorodihydrofluorescein diacetate (DCFH2-DA). A549 cells were seeded on a 48-well plate at a density of 10,000 cells/well. Twenty-four hours later, the compounds were added to 10 µM concentration in quadruplicate, and the cells were kept for 72 h. As a positive control, A549 cells were treated with 1 mM H2O2 for 2 h prior analysis. Then, media were replaced with the fresh FBS-lacking DMEM supplemented with 25 µM DCFH2-DA. After 45 min incubation, the cells were washed 10 times with 500 µL PBS, resuspended in 200 µL PBS and transferred to a black 96-well plate. The fluorescence intensities (FLIs) were measured using CHAMELEON V microplate reader with excitation at 485 nm and emission at 535 nm.

H1299 cells [8] = experiment: Mitochondrial membrane potential, TMRE in H1299 cells; format: cell-based; conditions: H1299, 72 h
Description: as §1

A549 [9] = conditions: read-out: IC50 against A549; cited from earlier work
[10] = read-out: Extracellular HBV DNA (Δlog10)
[11] = read-out: Intracellular Total HBV RNA (Δlog10)

Row | SMILES | IC50 (HeLa) | SARS-CoV-2 Δlgmax (SARS-CoV-2) | IC50 (SARS-CoV-2) | IC50 (K562 [2]) | log reduction at 1 µM (hepatitis B virus (HBV); [10]) | log reduction at 10 µM (hepatitis B virus (HBV); [10]) | log reduction at 1 µM (hepatitis B virus (HBV); [11]) | log reduction at 10 µM (hepatitis B virus (HBV); [11]) | IC50 (SH-SY5Y) | CC50 at 66 h [3] | IC50 (PV1) | IC50 (HSV-1) | IC50 (DU145) | IC50 (A549 [4]) | IC50 (HepaRG) | IC50 (VV) | IC50 (NDV) | Influenza A Virus Δlgmax (Influenza A virus) | other results
1 | CC(=O)C(=NNc1ccc2c(=O)cc(-c3ccccc3)oc2c1)N1CCCCC1 [11a, 7-[2-(2-oxo-1-(piperidin-1-yl)propylidene)hydrazinyl]-2-phenyl-4H-chromen-4-one] | – | – | – | – | – | – | – | – | – | – | – | – | – | – | – | – | – | – | IC50 against K562 (K562 [1]): 2.56 ± 0.57 µg/mL (≈ 6.57 µM)
2 | COc1cccc(NC(=O)CSc2nc(N3CCNCC3)c3c(c2C#N)CC(C)(C)OC3)c1 [DO11-47, 2-[(5-Cyano-3,3-dimethyl-8-piperazin-1-yl-3,4-dihydro-1H-pyrano[3,4-c]pyridin-6-yl)thio]-N-(3-methoxyphenyl)acetamide] | 39.3 ± 16.9 µM | 0 | > 38 µM | 12.8 ± 4.2 µM | < 0.5 | < 0.5 | < 0.5 | < 0.5 | 36.7 ± 18.2 µM | 810 µM | > 60 µM | > 60 µM | 10 ± 2.9 µM | 67.8 ± 5.8 µM | 437 ± 14.8 µM | > 60 µM | > 60 µM | 0 | IC50 (µM) HepaRG (HepaRG): almost non-toxic; expression of Nrf2, NQO1, HO-1, GCLC, and GCLM genes (Nrf2/ARE pathway): increase was not statistically significant
3 | COc1ccccc1NC(=O)CSc1nc(N2CCNCC2)c2c(c1C#N)CC(C)(C)OC2 [DO11-48, 2-[(5-Cyano-3,3-dimethyl-8-piperazin-1-yl-3,4-dihydro-1H-pyrano[3,4-c]pyridin-6-yl)thio]-N-(2-methoxyphenyl)acetamide] | 2.2 ± 0.6 µM | 0 | > 10 µM | 0.5 ± 0.1 µM | < 0.5 | < 0.5 | < 0.5 | < 0.5 | 18.1 ± 5.1 µM | 830 µM | > 3.75 µM | > 3.75 µM | 2.5 ± 1.2 µM | 3.5 ± 0.7 µM | 10.9 ± 1.6 µM | > 3.75 µM | > 3.75 µM | 0 | number of apoptotic and necrotic cells (H1299 cells [5]): increased the number of apoptotic and necrotic cells; accumulation of lysosomes (H1299 cells [6]): induced the accumulation of lysosomes; levels of Fe2+ ions (H1299 cells [7]): did not affect; ROS generation (A549 cells): significantly increased ROS generation; mitochondrial membrane potential (H1299 cells [8]): neither of them caused mitochondrial dysfunction
4 | CC(=O)CN1CCN(c2ccc(C(=O)C=Cc3ccc(N(C)C)cc3)cc2)CC1 [dimethylamino-4’-[N-(2-oxopropyl)-1-piperazinyl]chalcone] | – | – | – | – | – | – | – | – | – | – | – | – | – | – | – | – | – | – | IC50 (A549 [9]): 0.19 µM
